Measured values published in patent US7629358B2, “Compounds useful for the treatment of diseases” (Pfizer Inc, priority 2004, dated 2009).

Target: T1, human β2 adrenergic receptor (Homo sapiens, UniProt P07550)
T1 construct: expressed in transfected cells; host or cells: CHO (Chinese Hamster Ovary) cells, CHOhβ2
Assay: cAMP Flashplate assay in CHO cells recombinantly expressing the human β2 adrenergic receptor
Format: cell-based
Settings: CHOhβ2 cells, 1 hour incubation, data as % Isoprenaline activity
Method: According to another alternative, the agonist potency for the β2 receptor of the compounds of the formula (1) may also be determined by the measure of the concentration of compound according to the present invention required to produce half maximal effect (EC50) for the β2 receptor.
10 mM/100% DMSO (dimethylsulfoxide) stock of compound is diluted to required top dose in 4% DMSO. This top dose is used to construct a 10-point semi-log dilution curve, all in 4% DMSO. Isoprenaline (Sigma, I-5627) was used as a standard in every experiment and for control wells on each plate. Data was expressed as % Isoprenaline response.
CHO (Chinese Hamster Ovary) cells recombinantly expressing the human β2 adrenergic receptor (from Kobilka et al., PNAS 84: 46-50, 1987 and Bouvier et al., Mol Pharmacol 33: 133-139 1988 CHOhβ2) were grown in Dulbeccos MEM/NUT MIX F12 (Gibco, 21331-020) supplemented with 10% foetal bovine serum (Sigma, F4135, Lot 90K8404 Exp 09/04), 2 mM glutamine (Sigma, G7513), 500 μg/ml geneticin (Sigma, G7034) and 10 μg/ml puromycin (Sigma, P8833). Cells were seeded to give about 90% confluency for testing.
25 μl/well each dose of compound was transferred into a cAMP-Flashplate® (NEN, SMP004B), with […] as basal controls and 100 nM Isoprenaline as max controls. This was diluted 1:2 by the addition of 25 μl/well PBS. Cells were trypsinised (0.25% Sigma, T4049), washed with PBS (Gibco, 14040-174) and resuspended in stimulation buffer (NEN, SMP004B) to give 1×10^6 cells/ml CHOhB2. Compounds were incubated with 50 μl/well cells for 1 hour. Cells were then lysed by the addition of 100 μl/well detection buffer (NEN, SMP004B) containing 0.18 μCi/ml ^125I-cAMP (NEN, NEX-130) and plates were incubated at room temperature for a further 2 hours. The amount of ^125I-cAMP bound to the Flashplate® was quantified using a Topcount NXT (Packard), normal counting efficiency for 1 minute. Dose-response data was expressed as % Isoprenaline activity and fitted using a four parameter sigmoid fit.

T1 sequence (P07550 whole entry): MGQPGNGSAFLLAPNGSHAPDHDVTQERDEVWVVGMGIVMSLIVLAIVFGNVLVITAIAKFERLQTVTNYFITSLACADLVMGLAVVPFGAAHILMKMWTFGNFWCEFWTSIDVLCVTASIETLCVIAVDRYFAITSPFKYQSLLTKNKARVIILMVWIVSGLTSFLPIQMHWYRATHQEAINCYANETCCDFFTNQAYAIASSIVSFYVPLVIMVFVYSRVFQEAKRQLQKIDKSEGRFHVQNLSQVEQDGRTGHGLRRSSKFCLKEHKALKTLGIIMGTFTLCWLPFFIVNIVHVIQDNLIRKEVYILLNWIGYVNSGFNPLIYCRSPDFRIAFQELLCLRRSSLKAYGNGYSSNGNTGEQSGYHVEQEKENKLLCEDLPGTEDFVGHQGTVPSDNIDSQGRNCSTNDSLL

EC50 [nM]	SMILES
0.08	CC(C)(Cc1cccc(CC(=O)N2CCc3ccccc3C2)c1)NC[C@H](O)c1ccc(O)c(CO)c1 [Example 23, 4{(1R)-2-[(2-{3-[2-(3,4-dihydroisoquinolin-2(1H)-yl)-2-oxoethyl]phenyl}-1,1-dimethylethyl)amino]-1-hydroxyethyl}-2-(hydroxymethyl)phenol]
0.075	CC(C)(Cc1cccc(C(=O)NCCc2cccc(F)c2)c1)NC[C@H](O)c1ccc(O)c(CO)c1 [Example 63, N-[2-(3-Fluorophenyl)ethyl]-3-[2-({(2R)-2-hydroxy-2-[4-hydroxy-3-(hydroxymethyl)phenyl]ethyl}amino)-2-methylpropyl]benzamide]
0.874	C[C@H](Cc1cccc(CC(=O)N(C)CCC2CCCCC2)c1)NC[C@H](O)c1ccc(O)c(CO)c1 [Example 16, N-(2-cyclohexylethyl)-2-{3-[(2R)-2-({(2R)-2-hydroxy-2-[4-hydroxy-3-(hydroxymethyl)phenyl]ethyl}amino)propyl]phenyl}-N-methylacetamide]
0.1	CC(C)(Cc1cccc(C(=O)NCCc2ccccc2C(F)(F)F)c1)NC[C@H](O)c1ccc(O)c(CO)c1 [Example 102]
0.15	CC(C)(Cc1cccc(CC(=O)NCc2cc(C(F)(F)F)ccc2F)c1)NC[C@H](O)c1ccc(O)c(CO)c1 [Example 24, N-[2-fluoro-5-(trifluoromethyl)benzyl]-2-{3-[2-({(2R)-2-hydroxy-2-[4-hydroxy-3-(hydroxymethyl)phenyl]ethyl}amino)-2-methylpropyl]phenyl}acetamide]
0.134	CC(C)(Cc1cccc(C(=O)NCCC23CC4CC(CC(C4)C2)C3)c1)NC[C@H](O)c1ccc(O)c(CO)c1 [Example 114]
0.838	O=C(Cc1cccc(CCNC[C@H](O)c2ccc(O)c(CO)c2)c1)NCCc1ccccc1 [Example 46, 2-{3-[2-({(2R)-2-hydroxy-2-[4-hydroxy-3-(hydroxymethyl)phenyl]ethyl}amino)ethyl]phenyl}-N-(2-phenylethyl)acetamide]
0.444	C[C@H](Cc1cccc(C(=O)NCc2ccc(S(N)(=O)=O)cc2)c1)NC[C@H](O)c1ccc(O)c(CO)c1 [Example 62, N-[4-(aminosulfonyl)benzyl]-3-[(2R)-2-({(2R)-2-hydroxy-2-[4-hydroxy-3-(hydroxymethyl)phenyl]ethyl}amino)propyl]benzamide]
0.434	Cc1cccc(CCNC(=O)c2cccc(CC(C)(C)NC[C@H](O)c3ccc(O)c(CO)c3)c2)n1 [Example 88]
0.064	C[C@H](Cc1cccc(CC(=O)NCC23CC4CC(CC(C4)C2)C3)c1)NC[C@H](O)c1ccc(O)c(CO)c1 [Example 14, N-(1-adamantylmethyl)-2-{3-[(2R)-2-({(2R)-2-hydroxy-2-[4-hydroxy-3-(hydroxymethyl)phenyl]ethyl}amino)propyl]phenyl}acetamide]
1.16	CC(C)(Cc1cccc(C(=O)NCC2Cc3ccccc3C2)c1)NC[C@H](O)c1ccc(O)c(CO)c1 [Example 66]

SMILES	EC50 [nM]
C[C@H](Cc1cccc(CC(=O)NC2CCCCCC2)c1)NC[C@H](O)c1ccc(O)c(CO)c1 [Example 1, N-cycloheptyl-2-{3-[(2R)-2-({(2R)-2-hydroxy-2-[4-hydroxy-3-(hydroxymethyl)phenyl]ethyl}amino)propyl]phenyl}acetamide]	0.143

System: not given
Assay: not given
Settings: not given

melting point [°C]	SMILES
139 to 140	CC(C)(Cc1cccc(C(=O)NCCc2ccc(Cl)cc2)c1)NC[C@H](O)c1ccc(O)c(CO)c1 [Example 33, N-[2-(4-chlorophenyl)ethyl]-3-{2-[(2R)-2-hydroxy-2-(4-hydroxy-3-hydroxymethyl-phenyl)ethylamino]-2-methylpropyl}benzamide]
